Legend:
A. baumannii ARC5955 = test: Neutropenic murine thigh infection model; assay type: in vivo; details: thigh tissue, CD-1 mice, 24 h after initiation of therapy, 50 mg/kg SC/q3h
ADC-7 β-lactamase = ADC-7 β-lactamase (Acinetobacter baumannii, UniProt Q6DRA1); test: β-Lactamase steady-state kinetic analysis, ADC-7; assay type: biochemical, A. baumannii
OXA-58 β-lactamase [1] = target: T1, OXA-58 β-lactamase (Acinetobacter baumannii, UniProt Q2TR58); test: β-Lactamase steady-state kinetic analysis, OXA-58; assay type: biochemical, Acinetobacter spp.
OXA-66 β-lactamase = OXA-66 β-lactamase (Acinetobacter baumannii, UniProt Q58XD2); test: β-Lactamase steady-state kinetic analysis, OXA-66; assay type: biochemical, A. baumannii
OXA-58 β-lactamase [2] = target: T1, OXA-58 β-lactamase; test: OXA-58 acyl-transfer experiment (mass spectrometry), KPC-2 as recipient; assay type: biochemical; details: 10 µM each, 15 s to 24 h
OXA-48 = details: cited from earlier work
OXA-10 = details: OXA-10; range given jointly for several OXA enzymes; cited from earlier work
OXA-23 = details: cited from earlier work
OXA-24/40 = details: cited from earlier work
KPC-2 β-lactamase = details: cited from earlier work
OXA 24/40 = details: cited from earlier work
[3] = read-out: koff (residence time)
[4] = range given jointly for several OXA enzymes

T1 sequence (Q2TR58 22-280): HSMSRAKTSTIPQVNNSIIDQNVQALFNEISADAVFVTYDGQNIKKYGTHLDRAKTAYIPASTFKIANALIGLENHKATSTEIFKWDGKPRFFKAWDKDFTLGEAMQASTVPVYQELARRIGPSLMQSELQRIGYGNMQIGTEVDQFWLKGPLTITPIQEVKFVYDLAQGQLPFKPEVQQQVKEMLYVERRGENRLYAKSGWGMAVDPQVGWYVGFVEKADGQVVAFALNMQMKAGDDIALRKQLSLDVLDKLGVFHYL
OXA-66 β-lactamase, sequence (Q58XD2 entry or part of it): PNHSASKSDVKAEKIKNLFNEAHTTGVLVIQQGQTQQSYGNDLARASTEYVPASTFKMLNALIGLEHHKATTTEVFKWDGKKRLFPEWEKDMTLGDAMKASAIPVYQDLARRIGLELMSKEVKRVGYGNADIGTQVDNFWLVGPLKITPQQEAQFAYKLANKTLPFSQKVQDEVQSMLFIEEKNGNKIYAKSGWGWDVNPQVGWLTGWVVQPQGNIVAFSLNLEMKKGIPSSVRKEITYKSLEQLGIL

## CC1=C[C@@H]2CN(C(=O)N2OS(=O)(=O)O)[C@@H]1C(N)=O [ETX2514]
A. baumannii ARC5955
  Log10 CFU/g: 8.8 log10 CFU/g
A. baumannii ARC5955; 50 mg/kg
  Change in log10 CFU/g: 2.2 log10 CFU/g
ADC-7 β-lactamase
  Kd: 0.001 ± 0.0001 µM
  Ki: 0.11 ± 0.01 µM
ADC-7 β-lactamase; pH 7.4, read-out: k2/Ki
  kinact/KI: 1e+06 ± 1e+11 M⁻¹ s⁻¹
ADC-7 β-lactamase; [3]
  koff: 0.0008 ± 1e-08 s⁻¹
OXA-58 β-lactamase [1]
  Kd: 0.001 ± 0.0002 µM
  Ki: 0.39 ± 0.04 µM
OXA-58 β-lactamase [1]; pH 7.4, read-out: k2/Ki
  kinact/KI: 250000 ± 3e+09 M⁻¹ s⁻¹
OXA-58 β-lactamase [1]; [3]
  koff: 0.00016 s⁻¹
OXA-66 β-lactamase
  Ki: 43 ± 4 µM
OXA-58 β-lactamase [2]
  acyl transfer from acylated OXA-58 to KPC-2: did not transfer to KPC-2
OXA-48
  k2/Ki: 8 ± 2 × 10^5 M^−1 s^−1
OXA-10
  k2/Ki: 5 to 9 × 10^3 M^−1 s^−1
OXA-23; [4]
  k2/Ki (acylation rate): 5 to 9 × 10^3 M^−1 s^−1
OXA-24/40; [4]
  k2/Ki (acylation rate): 5 to 9 × 10^3 M^−1 s^−1
KPC-2 β-lactamase
  k2/Ki: 9.3 ± 0.6 × 10^5 M^−1 s^−1
  koff: 1.0 ± 0.1 × 10^−3 s^−1
OXA 24/40
  IC50: 0.19 µM

## N#CC1CC[C@@H]2CN1C(=O)N2OS(=O)(=O)O (stereo partly drawn) [WCK 4234]
OXA-23
  k2/Ki: 1.7 ± 0.2 × 10^4 M^−1 s^−1
OXA-24/40
  k2/Ki: 9.6 ± 1 × 10^3 M^−1 s^−1

Reference: paper PMC6414696 (mBio, 2019)
